Source: patent publication EP1561465A2, “Methods of use of fluoroquinolone compounds against bacteria” (LG Life Sciences, Ltd., priority 1999, dated 2001)
In brackets after ≈: the same amount, converted by molar mass. Read-outs that look alike come from different tables or passages of the source.

Tests used:
Type in all cases: cell-based
[1] = system: Streptococcus pneumoniae; assay: MIC by agar dilution (NCCLS), 411 isolates Buenos Aires 1998-99; settings: S. pneumoniae
[2] = system: Haemophilus influenzae; assay: MIC by NCCLS reference broth microdilution, 450 respiratory tract pathogens; settings: Haemophilus influenzae; for MIC90: read-out: MIC90
[3] = system: Moraxella catarrhalis; assay: as above
[4] = system: Klebsiella pneumoniae; assay: as above; settings: Klebsiella pneumoniae
[5] = system: Staphylococcus aureus; assay: as above
[6] = system: Streptococcus pyogenes; assay: as above; settings: Streptococcus pyogenes
[7] = system: Streptococcus pneumoniae; assay: as above; settings: for MIC50 / MIC90 / MIC: Streptococcus pneumoniae
[8] = Streptococcus pneumoniae, Penicillin intermediate (n = 17), read-out: MIC90
[9] = Streptococcus pneumoniae, Penicillin resistant (n = 4), read-out: MIC90
[10] = Streptococcus pneumoniae, Penicillin susceptible (n = 69), read-out: MIC90
[11] = Haemophilus influenzae (n = 100)
[12] = extended spectrum β-lactamase positive (n = 20)
[13] = β-lactamase positive and erythromycin resistant (n = 10)
[14] = Streptococcus pyogenes (n = 100)
[15] = erythromycin resistant C phenotype [MLSB] (n = 20)
[16] = erythromycin resistant I phenotype [MLSB] (n = 20)
[17] = erythromycin resistant M phenotype (n = 20)
[18] = Streptococcus pneumoniae (n = 100)
[19] = erythromycin resistant M phenotype (n = 16)
[20] = erythromycin resistant MLSB phenotype (n = 16)
[21] = penicillin intermediate (n = 16)
[22] = penicillin susceptible (n = 20)

CO/N=C(\C(=O)N[C@@H]1C(=O)N2C(C(=O)O)=C(CSc3nc(=O)c(=O)[nH]n3C)CS[C@H]12)c1csc(N)n1 [Ceftriaxone, ceftriaxone]
MIC90 [1, 8]: 1 µg/mL (≈ 1.8 µM) | MIC90 [1, 9]: 1 µg/mL (≈ 1.8 µM) | MIC90 [1, 10]: 0.016 µg/mL (≈ 0.0289 µM)

amoxycillin/clavulanate
MIC90 ([1]; Penicillin intermediate (n = 17)): 1 µg/mL | MIC90 ([1]; Penicillin resistant (n = 4)): 1 µg/mL | MIC90 ([1]; Penicillin susceptible (n = 69)): 0.016 µg/mL

CO/N=C(\C(=O)N[C@@H]1C(=O)N2C(C(=O)O)=C(COC(N)=O)CS[C@H]12)c1ccco1 [Cefuroxime, cefuroxime]
MIC [2, 11]: 0.12 to 4 µg/mL (≈ 0.283 to 9.43 µM) | MIC50 [2, 11]: 0.5 µg/mL (≈ 1.18 µM) | MIC90 [2, 11]: 1 µg/mL (≈ 2.36 µM) | MIC ([2]; β-lactamase negative (n = 80)): 0.25 to 1 µg/mL (≈ 0.589 to 2.36 µM) | MIC50 ([2]; β-lactamase negative (n = 80)): 0.5 µg/mL (≈ 1.18 µM) | MIC90 ([2]; β-lactamase negative (n = 80)): 1 µg/mL (≈ 2.36 µM) | MIC ([2]; β-lactamase positive (n = 20)): 0.12 to 4 µg/mL (≈ 0.283 to 9.43 µM) | MIC50 ([2]; β-lactamase positive (n = 20)): 0.5 µg/mL (≈ 1.18 µM) | MIC90 ([2]; β-lactamase positive (n = 20)): 1 µg/mL (≈ 2.36 µM) | MIC ([3]; Moraxella catarrhalis (n = 50)): 0.00375 to 1 µg/mL (≈ 0.00884 to 2.36 µM) | MIC50 ([3]; Moraxella catarrhalis (n = 50)): 0.25 µg/mL (≈ 0.589 µM) | MIC90 ([3]; Moraxella catarrhalis (n = 50)): 1 µg/mL (≈ 2.36 µM) | MIC ([3]; β-lactamase negative (n = 13)): 0.00375 to 1 µg/mL (≈ 0.00884 to 2.36 µM) | MIC50 ([3]; β-lactamase negative (n = 13)): 0.12 µg/mL (≈ 0.283 µM) | MIC90 ([3]; β-lactamase negative (n = 13)): 0.5 µg/mL (≈ 1.18 µM) | MIC ([3]; β-lactamase positive (n = 37)): 0.00375 to 1 µg/mL (≈ 0.00884 to 2.36 µM) | MIC50 ([3]; β-lactamase positive (n = 37)): 0.25 µg/mL (≈ 0.589 µM) | MIC90 ([3]; β-lactamase positive (n = 37)): 1 µg/mL (≈ 2.36 µM) | MIC50 ([4]; Klebsiella pneumoniae (n = 50)): 2 µg/mL (≈ 4.71 µM) | MIC90 ([4]; Klebsiella pneumoniae (n = 50)): 128 µg/mL (≈ 302 µM) | MIC50 [4, 12]: 128 µg/mL (≈ 302 µM) | MIC90 [4, 12]: > 128 µg/mL | MIC90 [1, 8]: 4 µg/mL (≈ 9.43 µM) | MIC90 [1, 9]: 4 µg/mL (≈ 9.43 µM) | MIC90 [1, 10]: 0.03 µg/mL (≈ 0.0707 µM) | MIC ([5]; Staphylococcus aureus (n = 50)): 0.00375 to 0.25 µg/mL (≈ 0.00884 to 0.589 µM) | MIC50 ([5]; Staphylococcus aureus (n = 50)): 0.25 µg/mL (≈ 0.589 µM) | MIC90 ([5]; Staphylococcus aureus (n = 50)): 0.25 µg/mL (≈ 0.589 µM) | MIC ([5]; β-lactamase negative (n = 20)): 0.0075 to 0.25 µg/mL (≈ 0.0177 to 0.589 µM) | MIC50 ([5]; β-lactamase negative (n = 20)): 0.25 µg/mL (≈ 0.589 µM) | MIC90 ([5]; β-lactamase negative (n = 20)): 0.25 µg/mL (≈ 0.589 µM) | MIC ([5]; β-lactamase positive (n = 20)): 0.06 to 0.25 µg/mL (≈ 0.141 to 0.589 µM) | MIC50 ([5]; β-lactamase positive (n = 20)): 0.25 µg/mL (≈ 0.589 µM) | MIC90 ([5]; β-lactamase positive (n = 20)): 0.25 µg/mL (≈ 0.589 µM) | MIC [5, 13]: 0.06 to 0.25 µg/mL (≈ 0.141 to 0.589 µM) | MIC50 [5, 13]: 0.12 µg/mL (≈ 0.283 µM) | MIC90 [5, 13]: 0.25 µg/mL (≈ 0.589 µM) | MIC [6, 14]: 0.00375 to 0.015 µg/mL (≈ 0.00884 to 0.0353 µM) | MIC50 [6, 14]: 0.0075 µg/mL (≈ 0.0177 µM) | MIC90 [6, 14]: 0.015 µg/mL (≈ 0.0353 µM) | MIC [6, 15]: 0.00375 to 0.015 µg/mL (≈ 0.00884 to 0.0353 µM) | MIC50 [6, 15]: ≤ 0.00375 µg/mL | MIC90 [6, 15]: 0.015 µg/mL (≈ 0.0353 µM) | MIC [6, 16]: 0.00375 to 0.01 µg/mL (≈ 0.00884 to 0.0236 µM) | MIC50 [6, 16]: ≤ 0.00375 µg/mL | MIC90 [6, 16]: 0.015 µg/mL (≈ 0.0353 µM) | MIC [6, 17]: 0.00375 to 0.015 µg/mL (≈ 0.00884 to 0.0353 µM) | MIC50 [6, 17]: ≤ 0.00375 µg/mL | MIC90 [6, 17]: 0.015 µg/mL (≈ 0.0353 µM) | MIC ([6]; fully susceptible (n = 20)): 0.0075 to 0.015 µg/mL (≈ 0.0177 to 0.0353 µM) | MIC50 ([6]; fully susceptible (n = 20)): 0.0075 µg/mL (≈ 0.0177 µM) | MIC90 ([6]; fully susceptible (n = 20)): 0.015 µg/mL (≈ 0.0353 µM) | MIC ([6]; multi-drug resistant (n = 20)): 0.0075 to 0.015 µg/mL (≈ 0.0177 to 0.0353 µM) | MIC90 ([6]; multi-drug resistant (n = 20)): 0.015 µg/mL (≈ 0.0353 µM) | MIC Range [7, 18]: ≤0.0075 to 8 µg/mL | MIC50 [7, 18]: 0.03 µg/mL (≈ 0.0707 µM) | MIC90 [7, 18]: 2 µg/mL (≈ 4.71 µM) | MIC [7, 19]: 0.0075 to 0.12 µg/mL (≈ 0.0177 to 0.283 µM) | MIC50 [7, 19]: 0.015 µg/mL (≈ 0.0353 µM) | MIC90 [7, 19]: 0.12 µg/mL (≈ 0.283 µM) | MIC [7, 20]: 0.015 to 0.5 µg/mL (≈ 0.0353 to 1.18 µM) | MIC50 [7, 20]: 0.015 µg/mL (≈ 0.0353 µM) | MIC90 [7, 20]: 0.03 µg/mL (≈ 0.0707 µM) | MIC ([7]; multi-drug resistant (n = 16)): 0.015 to 0.25 µg/mL (≈ 0.0353 to 0.589 µM) | MIC50 ([7]; multi-drug resistant (n = 16)): 0.03 µg/mL (≈ 0.0707 µM) | MIC90 ([7]; multi-drug resistant (n = 16)): 0.03 µg/mL (≈ 0.0707 µM) | MIC [7, 21]: 0.12 to 8 µg/mL (≈ 0.283 to 18.9 µM) | MIC50 [7, 21]: 2 µg/mL (≈ 4.71 µM) | MIC90 [7, 21]: 2 µg/mL (≈ 4.71 µM) | MIC ([7]; penicillin resistant (n = 18)): 2 to 8 µg/mL (≈ 4.71 to 18.9 µM) | MIC50 ([7]; penicillin resistant (n = 18)): 2 µg/mL (≈ 4.71 µM) | MIC90 ([7]; penicillin resistant (n = 18)): 8 µg/mL (≈ 18.9 µM) | MIC [7, 22]: 0.0075 to 0.015 µg/mL (≈ 0.0177 to 0.0353 µM) | MIC50 [7, 22]: 0.015 µg/mL (≈ 0.0353 µM) | MIC90 [7, 22]: 0.015 µg/mL (≈ 0.0353 µM)
